Data published in patent publication US11655256B1, “Processes for making a solid-state form of relugolix” (Johnson Matthey Public Limited Company, priority 2020, dated 2023).
One block for each compound: values may come before it.

Columns and labels:
Format in all cases: physicochemical
[1] = Stability under high humidity at ambient temperatures; settings: about 97% humidity, over a month
[2] = Stability on prolonged drying under vacuum; settings: about 2 days under vacuum at about 70° C.
Description: Form A of the DMF solvate of relugolix is stable, i.e., it is unchanged after prolonged drying (e.g., about 2 days) under vacuum at about 70° C.

[3] = Dynamic vapor sorption (DVS)
Description: DVS samples are analyzed using a TA Instruments Q5000SA gravimetric water sorption analyzer. The relative humidity is adjusted between about 0-95% and the weight of the sample is continuously monitored and recorded with respect to the relative humidity and time.

stability under humidity [1]: remains unchanged | stability after prolonged drying [2]: unchanged | DVS loss of mass ([3]; at about 90% RH): about 1%
SMILES: CONC(=O)Nc1ccc(-c2sc3c(c2CN(C)C)c(=O)n(-c2ccc(OC)nn2)c(=O)n3Cc2c(F)cccc2F)cc1 [Form A of the DMF solvate of relugolix, 1-[4-[1-[(2,6-difluorophenyl)-methyl]-5-[(dimethylamino)methyl]-3-(6-methoxypyridazin-3-yl)-2,4-dioxothieno-[2,3-d]pyrimidin-6-yl]phenyl]-3-methoxyurea]

stability at various humidity levels ([3]; evidenced by XRPD after DVS): remains stable | DVS weight loss ([3]; relative humidity levels between about 0 to about 95%): about 7%
SMILES: CONC(=O)Nc1ccc(-c2sc3c(c2CN(C)C)c(=O)n(-c2ccc(OC)nn2)c(=O)n3Cc2c(F)cccc2F)cc1 [Form B of anhydrous relugolix, 1-[4-[1-[(2,6-difluorophenyl)-methyl]-5-[(dimethylamino)methyl]-3-(6-methoxypyridazin-3-yl)-2,4-dioxothieno-[2,3-d]pyrimidin-6-yl]phenyl]-3-methoxyurea]

DVS weight % change ([3]; relative humidity (RH) levels between 0 to 90%): about 6%
SMILES: CONC(=O)Nc1ccc(-c2sc3c(c2CN(C)C)c(=O)n(-c2ccc(OC)nn2)c(=O)n3Cc2c(F)cccc2F)cc1 [Form T of anhydrous relugolix, 1-[4-[1-[(2,6-difluorophenyl)-methyl]-5-[(dimethylamino)methyl]-3-(6-methoxypyridazin-3-yl)-2,4-dioxothieno-[2,3-d]pyrimidin-6-yl]phenyl]-3-methoxyurea]
